What was measured:
in vivo = details: female, Balb/c, mouse, plasma, po
Btk = Btk (Homo sapiens (Human), UniProt Q06187); experiment: Btk acellular kinase assay (TR-FRET); details: Btk IC50 relative to compound 4
DHL-6 cells = experiment: DHL-6 cell growth (Alamar Blue assay); format: cell-based; details: 3E4 DHL-6 cells/well in complete media, 0.1% DMSO

Sequence of Btk (Q06187 whole entry): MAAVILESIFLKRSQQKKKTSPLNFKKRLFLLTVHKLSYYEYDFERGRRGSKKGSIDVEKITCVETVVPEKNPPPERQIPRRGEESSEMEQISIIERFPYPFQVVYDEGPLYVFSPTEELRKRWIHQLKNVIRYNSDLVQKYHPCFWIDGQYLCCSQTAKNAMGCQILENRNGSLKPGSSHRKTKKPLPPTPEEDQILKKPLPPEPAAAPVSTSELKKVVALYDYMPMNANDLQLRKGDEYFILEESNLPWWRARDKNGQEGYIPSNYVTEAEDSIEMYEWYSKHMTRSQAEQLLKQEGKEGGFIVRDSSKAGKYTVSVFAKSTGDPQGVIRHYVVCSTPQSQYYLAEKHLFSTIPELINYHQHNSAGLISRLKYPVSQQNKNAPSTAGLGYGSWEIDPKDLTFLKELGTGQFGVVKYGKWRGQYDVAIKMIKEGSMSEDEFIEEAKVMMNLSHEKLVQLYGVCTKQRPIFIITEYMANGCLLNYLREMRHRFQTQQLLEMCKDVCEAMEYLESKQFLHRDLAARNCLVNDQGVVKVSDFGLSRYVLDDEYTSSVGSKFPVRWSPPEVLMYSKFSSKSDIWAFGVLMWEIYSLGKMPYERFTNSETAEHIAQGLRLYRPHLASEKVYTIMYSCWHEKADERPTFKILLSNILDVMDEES

Which Tmax (in vivo) does the source give for `C=CC(=O)N1CCCC(n2nc(-c3ccc(Oc4ccccc4)cc3)c3c(N)ncnc32)C1` (stereo not drawn) [Compound 4, 1-(3-(4-amino-3-(4-phenoxyphenyl)-1H-pyrazolo[3,4-d]pyrimidin-1-yl)piperidin-1-yl)prop-2-en-1-one] here?
The Tmax was 2 h.

For `C/C=C/C(=O)N1CCCC(n2nc(-c3ccc(Oc4ccccc4)cc3)c3c(N)ncnc32)C1` (stereo not drawn) [Compound 5, (E)-1-(3-(4-amino-3-(4-phenoxyphenyl)-1H-pyrazolo[3,4-d]pyrimidin-1-yl)piperidin-1-yl)but-2-en-1-one], which “fold less potent than 4” value (Btk) is on record?
Its value is 28 fold.

With `CN(C)C/C=C/C(=O)N1CCCC(n2nc(-c3ccc(Oc4ccccc4)cc3)c3c(N)ncnc32)C1` (stereo not drawn) [Compound 15, (E)-1-(3-(4-amino-3-(4-phenoxyphenyl)-1H-pyrazolo[3,4-d]pyrimidin-1-yl)piperidin-1-yl)-4-(dimethylamino)but-2-en-1-one] as the compound, how does the “growth of DHL-6 cells” value (DHL-6 cells) read?
The value was “inhibit growth”.

Reference: patent US8497277B2, “Inhibitors of Bruton's tyrosine kinase” (Pharmacyclics, Inc., priority 2006, dated 2013)
